In data set [1] the test system is mice with LPS-induced sepsis. The note with it: eight mice per group; intranasal drip pulmonary delivery at 0, 6, 23.5 hr; LPS 50 μg at 24 hour; control three out of eight died. The protocol:
In all three groups, LPS-induced sepsis was caused by delivery of highly concentrated LPS (50 μg) at 24 hour. […] In the steroid-treated mice, an inhaled corticosteroid (ICS) was delivered for 5 minutes through intranasal drip pulmonary delivery at 0 hr, 6 hr, and 23.5 hr. In the control group, no drug was administered prior to inducing LPS sepsis.

In data set [2] the test system is Brown Norway (BN) rats sensitized to ragweed pollen extract. Particulars: aerosolized 0.05% brimonidine or 0.005% dexmedetomidine for 10 minutes before ragweed extract, FIG. 3.
Protocol: The control group rats were pretreated with aerosolized saline and administered aerosolized saline. The saline group rats were pretreated with aerosolized saline, then exposed to aerosolized ragweed extract for 10 minutes.
At 10 minutes after completion of the allergen exposure, rats were anesthetized and exsanguinated, and their lungs were lavaged with 50 ml of buffer solution. The resulting bronchoalveolar lavage (BAL) fluid was centrifuged to remove the cells, and the supernatants were analyzed for albumin concentration using an ELISA assay for rat albumin.
Data set [3] can be described thus: Ionization as a function of pH. In kind it is physicochemical. From the text: At a lower pH and a lower lipophilicity, bronchial mucosal membrane retention time is maximized and mucosal penetration is reduced. More of a drug is washed away and less is absorbed into lung parenchyma increasing the surface mucosal effect. The higher the lipophilicity, the greater is the selective α-2 agonist's penetration through the lipophilic mucosal cell membranes. This is because at a more alkaline pH, more of the compound is present in a non-ionized form.
When a selective α-2 agonist is lipophilic, it becomes highly ionized as it enters the distal esophagus and stomach. […] Thus, it is very poorly absorbed in lipophilic membranes of the gastrointestinal tract and therefore, results in less systemic absorption.

On data set [4], the source says:
The terms “salt” and “constituent of a balanced salt solution” are used interchangeably for the purposes of the present invention. They are a subset of agents that improve solubility of the inventive formulations.

On data set [5], the source says: The doses are estimates only, assuming less than 20% nebulized DTL (dose to lung).
The source holds these as a separate data set.

The source holds these as a separate data set.
Data set [6] concerns α-2 over α-1 adrenergic receptors. Particulars: cited from earlier work.
For data set [7] the following is noted: cited from earlier work.

≈ marks a conversion by molar mass, not a printed value. Read-outs that look alike come from different tables or passages of the source.

Consider `Brc1c(NC2=NCCN2)ccc2nccnc12.O=C(O)C(O)C(O)C(=O)O` [brimonidine, 5-bromo-6-(2-imidazolin-2-ylamino)quinoxaline D-tartrate], for which, in data set [1], the “deaths because of LPS-induced sepsis” value is reported as “no animals died”. Besides, the “BAL albumin concentration after ragweed exposure” value in [2] is recorded as “no apparent protective effect”.

One may read the solubility as how much of the substance goes into solution per volume. The low end stands for little dissolved substance, the high end for much dissolved substance. Consider `Cc1cccc([C@H](C)c2cnc[nH]2)c1C` [dexmedetomidine], for which the ionized result in [3] (in pharynx (pH is about 6.8)) is “about 65%”; in data set [3] (in stomach (pH of less than 5.0)), around 100%; in data set [3] (lungs and airways, pH about 7.4 to 7.8), 10-23%; in data set [3] (pH of 6.7), “about 65%”; in [3] (pH of 8.0 or greater), “about 10%”. The non-ionized result in [3] (pH of 6.7) is “about 35%”; in [3] (pH of 8.0 or greater) it was “about 90%”. The “max soluble concentration, BSS solution” value in [4] (pH 7) was “≧0.10%”. For the same compound, the “soluble concentration with constituents of a balanced salt solution” value in [4] (pH 7.1) is at least 0.1%. In data set [5] (nebulized 0.03% at pH 5.0, reduced from baseline 10, scale for mild asthma), the wheeze-auscultation score entry is “about 5”. Besides, in [5] (nebulized 0.03% at pH 8.0, versus pH 5.0), the “lung effects (wheeze and airway resistance versus baseline)” value is listed as “the lung effects are greater”. For the same compound, the max soluble concentration was found to be 0.195% (pH 6); 0.060% (pH 6.4); 0.023% (pH 7); 0.015% (pH 7.4); 0.013% (pH 8). For the same compound, the “BAL albumin concentration after ragweed exposure” value in [2] is “albumin levels similar to those of control rats”. Also, the solubility in the data set “physchem” (pH 6, aqueous buffer) was 1950 µg/mL (≈ 9750 µM); in the data set “physchem” (pH 6.4, aqueous buffer), around 600 µg/mL (≈ 3000 µM); in the data set “physchem” (pH 7, aqueous buffer), 224 µg/mL (≈ 1120 µM); in the data set “physchem” (pH 7.4, aqueous buffer), around 150 µg/mL (≈ 749 µM); in “physchem” (pH 8, aqueous buffer), 134 µg/mL (≈ 669 µM). Also, the α2/α1 selectivity entry in data set [6] is listed as “over 1,500”.

In the case of `CNC1(c2ccccc2Cl)CCCCC1=O` (stereo not drawn) [ketamine], the ionization result in data set [3] (pH of about 8.5) is “about 10%”. The ionization entry in [3] (physiologic pH) is recorded as “over 60%”. In addition, in [7] (in vivo), the “plasma level at which dissociative changes have been documented” value was at most 1000 ng/mL and the “plasma level at which sedation occurs” value is on record as “about 9000 μg/L”. Moreover, the “plasma levels with prior art inhalation forms” value in data set [7] (inhalation) was “over 800 ug/L”.
